Like-named read-outs stand apart in the source and are kept apart here. A value given as a limit tells only on which side of the number the result lay.

The results in this text go back to patent US20060014740A1 (priority 2003, published 2006).

Series [1] concerns human breast cancer cell line (MCF-7). Description: SRB cytotoxicity assay, MCF-7. Type of series: cell-based. As to conditions: Homo sapiens, MCF7; Table 8; breast cancer cell line; read-out: IC50 MCF-7. How it is done: (§1) For in vitro cytotoxicity screening, 1000 to 5000 cells were plated into each well of 96-well plates depending on growth rate, and exposed to different concentrations of a test compound for 96 h in three to five replicates. All the compounds were dissolved in dimethyl sulfoxide at 5 to 20 mM, and diluted to desired concentrations in complete culture medium. Cell numbers at the end of the drug treatment were measured by the SRB assay (Gududuru et al., “Synthesis and Biological Evaluation of Novel Cytotoxic Phospholipids for Prostate Cancer,” Bioorg. Med. Chem. Lett. 14:4919-4923 (2004); Rubinstein et at., “Comparison of in vitro Anticancer-Drug-Screening Data Generated with a Tetrazolium Assay Versus a Protein Assay Against a Diverse Panel of Human Tumor Cell Lines,” J. Naatl, Cancer Inst. 82:1113-1118 (1990), each of which is hereby incorporated by reference in its entirety). Briefly, the cells were fixed with 10% of trichloroacetic acid, stained with 0.4% SRB, and the absorbances at 540 nm was measured using a plate reader (DYNEX Technologies, Chantilly, Va.).
In vitro cytotoxicity assay was performed by the same sulforhodamine B (SRB) assay (described above). The compounds shown in Table 8 below where tested for activity against the breast cancer and ovarian cancer cell lines.
(§2) The chosen cell lines represent different basal levels of active AKT and LPL receptor expression (discussed later). Cells were exposed to a wide range of concentrations (0 to 100 μM) of the indicated compound for 96 h. Cell numbers at the end of treatment were measured using the sulforhodamine B (SRB) assay^5.
(§3) Cells were exposed to a wide range of concentrations (0 to 100 μM) of the particular compound for 96 h in 96 well plates. Cells were fixed with 10% trichloroacetic acid, washed five times with water. The plates were air dried overnight and fixed cells were stained with SRB solution. The cellular protein-bound SRB was measured at 540 nm using a plate reader. Cell numbers at the end of the treatment were measured.
A general note: The SRB assay estimates cell density from bound dye.

The subject of series [2] is LNCaP human prostate cancer cells. Description: SRB cytotoxicity assay, LNCaP. Particulars: Homo sapiens, LNCaP, 96 h, read-out: IC50 LNCaP. Type of series: cell-based. How it is done: as §1
(§4) The antiproliferative activity of all the synthesized compounds was evaluated against five human prostate cancer cell lines and in RH7777 cells (negative control) using the sulforhodamine B (SRB) assay (see description in Example 5 above).
as §2, §3
(§5) Cells were exposed to a wide range of concentrations (0 to 100 μM) of the particular compound for 96 h in 96-well plates. Cells were fixed with 10% trichloroacetic acid, washed five times with water. The plates were air dried overnight and fixed cells were stained with SRB solution. The cellular protein-bound SRB was measured at 540 nm using a plate reader. Cell numbers at the end of the treatment were calculated as a percentage of untreated control.

Series [3] has as its system RH7777 rat hepatoma cells. Description: SRB cytotoxicity assay, RH7777 control cell line. Type of series: cell-based. Particulars: Rattus norvegicus, RH7777, control cell line, 96 h, read-out: IC50 RH7777. On the procedure: as §1, §4, §2, §3, §5
The subject of series [4] is PPC-1 human prostate cancer cells. The series can be described thus: SRB cytotoxicity assay, PPC-1. Type of series: cell-based. Particulars: Homo sapiens, PPC-1, 96 h, read-out: IC50 PPC-1. On the procedure:
(§6) Dr. Mitchell Steiner at University of Tennessee Health Science Center, kindly provided PPG-1 and TSU-PrI cells.
as §1, §4, §2, §3, §5

Series [5] relates to TSU-Pr1 human prostate cancer cells. Description: SRB cytotoxicity assay, TSU-Pr1. Type of series: cell-based. Particulars: Homo sapiens, TSU-Pr1, 96 h, read-out: IC50 TSU-Pr1. On the procedure:
as §6, §1, §4, §2, §3, §5

Series [6] has as its system PC-3 human prostate cancer cells. Description: SRB cytotoxicity assay, PC-3. Type of series: cell-based. Particulars: Homo sapiens, 96 h, read-out: IC50 PC-3. On the procedure:
as §1, §4, §2, §3, §5

The subject of series [7] is DU-145 human prostate cancer cells. The series can be described thus: SRB cytotoxicity assay, DU-145. Type of series: cell-based. As to conditions: Homo sapiens, DU-145, read-out: IC50 DU-145, 96 h. How it is done: as §1, §4, §2, §3, §5

Usually IC50 stands for the midpoint of a concentration-inhibition curve. A word on the melting point: it is the temperature of the solid-liquid transition. Take `CCCCCCCCCCCCCCCCCCNC(=O)[C@@H]1CSC(c2cccnc2)N1` (mixture of isomers) [Compound 11, (2RS, 4R)-2-Pyridin-3-yl-thiazolidine-4-carboxylic acid octadecylamide]: the melting point was determined as 94 °C. Besides, in series [1], the IC50 was 9.3 µM. In addition, in series [2] (Table 3), the IC50 worked out at 3.6 µM. Besides, the IC50 in series [3] (Table 3) amounted to 10.5 µM. For the same molecule, in series [4] (Table 3), the IC50 is 2.9 µM. Also, the half-inhibitory concentration (IC50) in series [5] (Table 3) stood at 7.8 µM. For the same molecule, the IC50 in series [6] (Table 3) is 9.2 µM. Besides, the IC50 in series [7] (Table 3) was 7.5 µM.
Turning to `CCCCCCCCCCCCCCCCCCNC(=O)[C@@H]1CSC(c2ccccc2)N1C(C)=O` (mixture of isomers) [Compound 28, (2RS, 4R)-3-Acetyl-2-phenylthiazolidine-4-carboxylic acid octadecylamide], the melting point worked out at 90 °C. Further, the IC50 in series [1] came to 16.3 µM. Besides, in series [2] (Table 4), the IC50 was 16.1 µM. Also, the IC50 in series [3] (Table 4) was above 20 µM. The IC50 in series [4] (Table 4) was 12.6 µM. Further, in series [5] (Table 4), the IC50 was above 20 µM. Further, the IC50 in series [6] (Table 4) is around 20 µM. Moreover, the 50% inhibitory concentration (IC50) in series [7] (Table 4) is around 20 µM.
`CCCCCCCCCCCCCCCCCCNC(=O)[C@@H]1CSC(c2ccc([N+](=O)[O-])cc2)N1` (mixture of isomers) [Compound 21, (2RS, 4R)-2-(4-Nitro-phenyl)-thiazolidine-4-carboxylic acid octadecylamide] had a melting point of 115 °C. Besides, in series [1], the half-inhibitory concentration (IC50) worked out at 16.3 µM. Also, the IC50 in series [2] (Table 4) worked out at 8.4 µM. Further, the half-maximal inhibitory concentration (IC50) in series [3] (Table 4) is around 20 µM. Also, the IC50 in series [4] (Table 4) is 15.3 µM. Moreover, in series [5] (Table 4), the IC50 amounted to 15.9 µM. The IC50 in series [6] (Table 4) is around 20 µM. In series [7] (Table 4), the IC50 is 15.3 µM.
Turning to `CCCCCCCCCCCCCCCCCCNC(=O)[C@@H]1CSC(c2ccccc2)N1S(C)(=O)=O` (mixture of isomers) [Compound 29, (2RS,4R)-3-Methanesulfonyl-2-phenylthiazolidine-4-carboxylic acid octadecylamide], the melting point was 55 °C. Besides, the IC50 in series [1] was above 20 µM. Also, in series [2] (Table 4), the IC50 was above 20 µM. In series [3] (Table 4), the IC50 was above 20 µM. Also, in series [4] (Table 4), the IC50 was above 20 µM. The IC50 in series [5] (Table 4) was above 20 µM. Besides, in series [6] (Table 4), the IC50 was above 20 µM. Moreover, in series [7] (Table 4), the IC50 is above 20 µM.
With `CCCCCCCCCCCCCCCCCCNC(=O)[C@@H]1CSC(Cc2ccccc2)N1` (mixture of isomers) [Compound 9, (2RS, 4R)-2-Benzylthiazolidine-4-carboxylic acid octadecylamide], the melting point amounted to 80 °C. Also, in series [1], the half-inhibitory concentration (IC50) was 18.7 µM. Also, the IC50 in series [2] (Table 3) stood at 4.4 µM. For the same molecule, the IC50 in series [3] (Table 3) is above 20 µM. Besides, in series [4] (Table 3), the IC50 was 4 µM. The IC50 in series [5] (Table 3) amounted to 11.2 µM. For the same molecule, the IC50 in series [6] (Table 3) is 16.4 µM. Moreover, the IC50 in series [7] (Table 3) was 15.3 µM.
In the case of `CCCCCCCCCCCCCCCCCCNC(=O)[C@@H]1CSC(c2c[nH]c3ccccc23)N1` (mixture of isomers) [Compound 10, (2RS, 4R)-2-(1H-Indol-3yl)-thiazolidine-4-carboxylic acid octadecylamide], the melting point amounted to 125 °C. Moreover, the IC50 in series [2] (Table 3) stood at 2.1 µM. In series [3] (Table 3), the IC50 was above 20 µM. The IC50 in series [4] (Table 3) stood at 1.3 µM. Besides, the IC50 in series [5] (Table 3) is 4.4 µM. In series [6] (Table 3), the IC50 turned out to be 11.5 µM. Moreover, the half-inhibitory concentration (IC50) in series [7] (Table 3) turned out to be 8.9 µM.
In turn, `CCCCCCCCCCCCCCCCCCNC(=O)[C@@H]1CSC(c2cc(F)cc(F)c2)N1` (mixture of isomers) [Compound 23, (2RS, 4R)-2-(3,5-Difluoro-phenyl)-thiazolidine-4-carboxylic acid octadecylamide] yielded a melting point of 113 °C. Further, in series [2] (Table 4), the IC50 was 11.2 µM. Further, the IC50 in series [3] (Table 4) was above 20 µM. In addition, in series [4] (Table 4), the 50% inhibitory concentration (IC50) was determined as 10.6 µM. Moreover, the IC50 in series [5] (Table 4) was above 20 µM. In addition, the concentration for half-maximal inhibition (IC50) in series [6] (Table 4) is above 20 µM. For the same molecule, in series [7] (Table 4), the IC50 is above 20 µM.
On to `CCCCCCCCCCCCCCCCCCNC(=O)[C@@H]1CSC(c2ccc(F)c(Br)c2)N1` (mixture of isomers) [Compound 25, (2RS, 4R)-2-(3-Bromo-4-fluoro-phenyl)-thiazolidine-4-carboxylic acid octadecylamide], for which the melting point was 100 °C. Besides, the IC50 in series [1] worked out at 15.3 µM. Besides, the IC50 in series [2] (Table 4) was found to be 3 µM. In addition, the IC50 in series [3] (Table 4) was around 20 µM. For the same molecule, in series [4] (Table 4), the IC50 turned out to be 4.7 µM. Also, the IC50 in series [5] (Table 4) amounted to 14 µM. Also, the IC50 in series [6] (Table 4) stood at 13.5 µM. The IC50 in series [7] (Table 4) turned out to be 11.3 µM.
For `CCCCCCCCCCCCCCCCCCNC(=O)[C@@H]1CSC(C2CCCCC2)N1` (mixture of isomers) [Compound 8, (2RS, 4R)-2-Cyclohexylthiazolidine-4-carboxylic acid octadecylamide], the melting point is 60 °C. Further, in series [1], the IC50 is around 20 µM. In addition, the IC50 in series [2] (Table 3) came out at 12.8 µM. The IC50 in series [3] (Table 3) was above 20 µM. The IC50 in series [4] (Table 3) was found to be 9.3 µM. Also, in series [5] (Table 3), the half-maximal inhibitory concentration (IC50) is above 20 µM. Moreover, in series [6] (Table 3), the IC50 was above 20 µM. Also, the IC50 in series [7] (Table 3) was above 20 µM.
Molecule `CCCCCCCCCCCCCCCCCCNC(=O)[C@@H]1CSC(c2ccc(C)cc2)N1` (mixture of isomers) [Compound 26, (2RS, 4R)-2 p-Tolyl-thiazolidine-4-carboxylic acid octadecylamide] returned a melting point of 120 °C. In series [1], the half-maximal inhibitory concentration (IC50) amounted to 10.3 µM. Moreover, the IC50 in series [2] (Table 4) came out at 1.9 µM. In addition, in series [3] (Table 4), the IC50 was above 20 µM. Further, the IC50 in series [4] (Table 4) was 1.9 µM. For the same molecule, in series [5] (Table 4), the 50% inhibitory concentration (IC50) amounted to 8 µM. In addition, in series [6] (Table 4), the 50% inhibitory concentration (IC50) was 12.8 µM. Also, in series [7] (Table 4), the IC50 is 10.5 µM.
`CCCCCCCCCCCCCCCCCCNC(=O)[C@@H]1CSC(c2ccc(Br)cc2)N1` (mixture of isomers) [Compound 20, (2RS, 4R)-2-(4-Bromo-phenyl)-thiazolidine-4-carboxylic acid octadecylamide]: the melting point came to 81 °C. Moreover, in series [1], the IC50 was found to be 16.6 µM. In addition, the IC50 in series [2] (Table 4) worked out at 5.1 µM. In series [3] (Table 4), the IC50 was above 20 µM. Moreover, the IC50 in series [4] (Table 4) is 3.7 µM. For the same molecule, the IC50 in series [5] (Table 4) stood at 18.3 µM. For the same molecule, the IC50 in series [6] (Table 4) is 17.3 µM. For the same molecule, the IC50 in series [7] (Table 4) was found to be 13.8 µM.
Molecule `CCCCCCCCCCCCCCCCCCNC(=O)[C@@H]1CSC(c2ccc(N(C)C)cc2)N1` (mixture of isomers) [Compound 13, (2RS, 4R)-2-(4-Dimethylamino-phenyl)-thiazolidine-4-carboxylic acid octadecylamide] returned a melting point of 75 °C. Also, the IC50 in series [1] is 13.5 µM. For the same molecule, the IC50 in series [2] (Table 3) is 1.6 µM. In series [3] (Table 3), the half-inhibitory concentration (IC50) is above 20 µM. Further, the 50% inhibitory concentration (IC50) in series [4] (Table 3) was found to be 1.1 µM. Moreover, the IC50 in series [5] (Table 3) stood at 3 µM. Besides, the IC50 in series [6] (Table 3) is 6 µM. In series [7] (Table 3), the 50% inhibitory concentration (IC50) worked out at 5.3 µM.
